# Data from patent publication US20200129450A1, “COMPOSITION COMPRISING OSMUNDACETONE OR PHARMACEUTICALLY ACCEPTABLE SALT THEREOF FOR PREVENTING OR TREATING BONE DISEASE” (KORPHARM CO., LTD., priority 2016, published 2020).
# Tests used:
# ALP activity in MC3T3-E1 = assay: Measurement of ALP activity in MC3T3-E1; format: cell-based, mouse; details: 1 μM (positive control, printed in the 10 μM column), MC3T3-E1
# Experimental: ALP activity was assessed using Quantichrom ALP Assay Kit (Bioassay Systems, Hayward, Calif., USA) according to manufacturer's instructions.
# Briefly, 3×10^3 MC3T3-E1 cells were dispensed in a 96-well plate together with […] of complete α-MEM containing ascorbic acid (50 μg/mL) and 10 mM β-glycerophosphate per well. Here, osmundacetone (10 μM and 50 μM) was added or not added, and the medium was exchanged every 3-4 days.
# On day 14 of the incubation, the colorimetric change due to ALP activity in the cell fraction was measured using a spectrophotometer plate reader (Molecular Devices, Sunnyvale, Calif., USA) at 405 nm (Kim et al., 2016). The % activation of ALP activity was shown by comparing ALP activity of cells treated with an experimental compound and ALP activity of the non-treated control cells.
# [1] = test system: osteoclasts differentiated from mouse bone marrow cells; assay: TRAP assay, osteoclast proliferation and differentiation inhibitory activity; format: cell-based
# Experimental: Bone marrow cells were collected from the femur and shin bones of 5-8 week old male C57BL/6 mice. Muscles were removed from the bones, and stored in cold phosphate buffered saline (PBS; # CAP08-050, GenDEPOT, Katy, Tex., USA).
# Both ends of each bone were cut, and the bone marrow was flushed with a flushing medium (serum-free α-MEM, 2 mM ethylenediaminetetraacetic acid) kept cool, using a 25 G needle.
# Bone marrow cells were collected by centrifugation at 3,000 rpm for 3 min using Labogene 1248R (Labogene, Lynge, Denmark), and then resuspended in a wash medium. Thereafter, 8 mL of the collected bone marrow cells were overlaid on 6 mL of a lymphocyte isolation medium (LSM; #50494, MP Biomedicals, Santa Ana, Calif., USA), followed by centrifugation at 1,600 rpm for 20 minutes, thereby isolating mononuclear cells.
# The mononuclear cell bands were collected from the media interface, and incubated using complete α-MEM (containing 10% fatal bovine serum (FBS; Capricorn Scientific, Ebsdorfergrund, Germany) and 1% (v/v) antibiotic (including 100 U/mL penicillin G and […] streptomycin)) in the conditions of 37° C. and 5% CO2 while the medium was exchanged every three days.
# In order to promote the differentiation of osteoclasts, 1×10^5 cells were incubated in 0.5 mL of the medium per well in a 48-well plate, in the presence of osteoclast differentiation factors, M-CSF (60 ng/mL) and RANKL (150 ng/mL), purchased from PeproTec (Seoul, Korea). As known, macrophages/monocytes derived from one bone marrow differentiated into mature multinucleated osteoclasts after 6 days (Gurt et al., 2015).
# The tibia and femur of 6-8 week old male C57BL/6 mice were aseptically resected, and bone marrow cells were aseptically collected using a syringe (21 G, Korea Green Cross). The bone marrow cells were floated in 500 μL of α-MEM medium (Gibco BRL Co.) containing sodium bicarbonate (2.0 g/L), streptomycin (100 mg/L), and penicillin ([…]), dispensed in a 48-well plate, and assayed in triplicate. Mononuclear cells as precursor cells of osteoclasts were treated with RANKL and M-CSF as differentiation promoting factors, and thus differentiated into osteoclasts within 5-7 days.
# 2-1) Sample preparation: The hot-water extract, EA extract, or fraction of Osmunda japonica were prepared by the same methods as in section 1 of <Example 1>. The EA-2 extract was dissolved in a minimum amount of DMSO, and then diluted with water to 70% of the original volume of the hot-water extract assuming that the yield of EA-2 extraction was approximately 70%. 2-2) Sample administration: The sample was continuously administered to a medium at 1:20 (v/v; 25 μL of the sample per 500 μL of the medium) from day 1 of incubation of bone marrow cells, while the medium was exchanged every 2-3 days. 2-3) Measurement of osteoclast differentiation Osteoclasts were defined by TRAP-positive multinucleated cells stained with TRAP. As for TRAP stain solution, 5 mg of naphthol AS-MS phosphate (Sigma N-4875) as a base and 25 mg of Fast Red Violet LB salt as a color developing reagent were dissolved in about 0.5 mL of N,N-dimethylformamide, and then mixed with 0.1N NaHCO3 buffer solution (50 mL) containing 50 mM tartaric acid. The reaction reagent was stored in a refrigerator before use.
# After bone marrow cells were incubated in a medium containing differentiation promoting factors for 7 days, the medium was removed, and the cells were washed with PBS, and then immobilized with PBS containing 10% formalin for 2-5 minutes. Thereafter, the cells were immobilized with a 1:1 mixture solution of ethanol and acetone, followed by drying. The immobilized cells were treated with the TRAP stain solution for 15 minutes, and washed with PBS, and then the degree of cell staining was observed by a microscope.
# In the microscope field of view, cells having two or more nuclei in the TRAP-positive cells were determined to be osteoclasts, and the number of cells was measured. […]
Compound,% Activation of ALP activity (ALP activity in MC3T3-E1),"formation of giant osteoclasts, number compared with the positive control group ([1]; 1 μM)","IC50 ([1]; Mus musculus, Osteoclast, tested at 1, 4, 7 and 10 μM, TRAP-positive multinucleated cells)"
Parathyroid hormone-related peptide [reference compound],138 ± 19%,,
"NCCCC(O)(P(=O)(O)O)P(=O)(O)O [Fosamax, alendronate, reference compound]",,smaller compared with the positive control group,≤ 4 µM
